Experimental data taken from patent publication EP0450065A1, “ANTIVIRAL AGENT” (priority 1988, dated 1990).
Where two headings read alike, the source gives them in different places.

What was measured:
[1] = system: herpes simplex virus type 1 (KOS strain); assay: One-step growth of virus, plaque assay with vero cells; format: cell-based; conditions: for Intracellular virus Average / Intracellular virus Control ratio % / Intracellular virus Control ratio -logT/C: 24 hours
Method: Antiviral activity of Compound A and Compound B against one-step growth of herpes simplex virus type 1 (KOS strain) Cells grown in a monolayer, with a sample of a given compound diluted in a varying ratio added, were pretreated for 15 minutes. Then, the pretreated cells were infected with the herpes simplex virus type 1 (KOS strain) at an infecting ratio of 0.25 and left standing for 24 hours. At the end of the standing, the intracellular and extracellular amounts of virus were determined by the plaque assay with vero cells.

[2] = system: herpes simplex virus type 1 (KOS strain); assay: 50% Tissue culture infective dose (TCID50), Read-Munch method, negative logarithm of virus dilution; format: cell-based; design: key to Cytopathic effect [CPE] (5days) TCID50 / Cytopathic effect [CPE] (3days) TCID50: TCID50 as negative log of maximum virus dilution ratio; key to Cytopathic effect [CPE] (5days) △TCID50 / Cytopathic effect [CPE] (3days) △TCID50: difference from control TCID50, in negative log of virus dilution; conditions: HSV-1 (KOS), Example 7; for Cytopathic effect [CPE] (3days) △TCID50 / Cytopathic effect [CPE] (5days) △TCID50: difference from control
Method: The amount of virus infecting 50% of tissues (TCID₅₀) was determined by the Read-Munch method and expressed in negative logarithm of the maximum radio of dilution of virus. The difference of the amount thus determined from the amount found in the control (omitting the treatment with a chemical) was reported as ΔTCID₅₀. A sample whose ΔCPE's found on the last day of observation and on each of the days spent for the observation exceeded 1.0 was evaluated as effective.
(§1) Antiviral activity of Compound A and Compound B against herpes simplex virus type 1 (KOS strain) The test was carried out by following the procedure of Example 3.

[3] = system: herpes simplex virus type 1 (KOS strain); assay: Control of CPE (cytopathic effect) manifestation in vero cells; format: cell-based; conditions: HSV-1 (KOS), Example 7; for Cytopathic effect [CPE] (3days) △CPE / Cytopathic effect [CPE] (5days) △CPE: difference from control
Method: Vero cells cultured and grown in a monolayer on microplates to test for cytopathic effect due to viral infection, with solutions of Compound A diluted to varying ratios and solutions of virus diluted to varying ratios added severally thereto in a volume of 0.1 ml, were cultured under the conditions of 5% CO₂ and 37°C and were examined for CPE manifestation under a microscope. The observation was continued for five to six days.
The degree of CPE brought about by viral infection was rated on the five-point scale, wherein 3 stands for CPE observed on not less than 75% of cultured cells, 2 for CPE observed on 50% of cultured cells, 1 for CPE observed on 25% of cultured cells, 0.5 for occurrence of one to two extremely minute DPE spots, and 0 for perfect absence of recognizable CPE. The CPE scores obtained at the four holes in each microplate were averaged and the difference of the average from the average obtained in the control (omitting the treatment with a chemical) was reported as ΔCPE.
as §1

[4] = system: vero cells; conditions: african green monkey
Method: Compound A and Compound B were severally dissolved in distilled water in a concentration of 5 mg/ml, to prepare master solutions. Each of the master solutions was suitably diluted with an Eagle's MEM culture medium containing 10% fetal bovine serum. A 0.2-ml portion of the resultant dilution product was placed on vero cells cultured in advance on a microplate and grown in a monolayer, cultured further thereon at 37°C for three to five days. Samples taken severally after three days'and five days'culture were placed under a microscope and tested for cytopathogenic effect brought about by a chemical agent.

[5] = system: vero cells; conditions: control ratio on propagation of vero cells, 72hr
Method: Samples of the control group contained 0.1 ml of a culture solution (an Eagle's MEM culture medium containing 10% fetal bovine serum).
The test was conducted by using three culture tubes per group, culturing the cells in the tubes at 37°C for three days, and taking count of live cells by the dye-exclusion method.

## K₇PW₁₀Ti₂O₄₀.6H₂O [Compound B]
[1]; 50 μg/ml, extracellular virus
  Intracellular virus Average: 5.83×10^5 /dish
  Intracellular virus Control ratio %: 98.1%
  Intracellular virus Control ratio -logT/C: 1.711
[1]; 50 μg/ml
  Intracellular virus Average: 6.00×10^5 /dish
  Intracellular virus Control ratio %: 99.8%
  Intracellular virus Control ratio -logT/C: 2.831
[1]; 100 μg/ml, extracellular virus
  Intracellular virus Average: 2.10×10^5 /dish
  Intracellular virus Control ratio %: 99.3%
  Intracellular virus Control ratio -logT/C: 2.155
[1]; 100 μg/ml
  Intracellular virus Average: 1.12×10^5 /dish
  Intracellular virus Control ratio -logT/C: 3.560
[1]; 100 μg/ml, 1440 min
  Intracellular virus Control ratio %: >99.9%
[1]; 200 μg/ml, extracellular virus
  Intracellular virus Average: 4.95×10^4 /dish
  Intracellular virus Control ratio %: 99.8%
  Intracellular virus Control ratio -logT/C: 2.783
[1]; 200 μg/ml
  Intracellular virus Average: 1.07×10^3 /dish
  Intracellular virus Control ratio -logT/C: 5.580
[1]; 200 μg/ml, 1440 min
  Intracellular virus Control ratio %: >99.9%
[1]; concentration not given, 1440 min
  control of the intracellular and extracellular viruses in the one-step growth: not less than 99.9%
[2]; 100 μg/ml
  Cytopathic effect [CPE] (3days) TCID50: 3.5
  Cytopathic effect [CPE] (5days) TCID50: 3.5
  Cytopathic effect [CPE] (3days) △TCID50: 2.0
  Cytopathic effect [CPE] (5days) △TCID50: 2.5
[2]; 200 μg/ml
  Cytopathic effect [CPE] (3days) TCID50: 3.5
  Cytopathic effect [CPE] (5days) TCID50: 3.5
  Cytopathic effect [CPE] (3days) △TCID50: 2.0
  Cytopathic effect [CPE] (5days) △TCID50: 2.5
[3]; 100 μg/ml
  Cytopathic effect [CPE] (3days) Average: 0
  Cytopathic effect [CPE] (5days) Average: 0
  Cytopathic effect [CPE] (3days) △CPE: 2.0
  Cytopathic effect [CPE] (5days) △CPE: 3.0
[3]; 200 μg/ml
  Cytopathic effect [CPE] (3days) Average: 0
  Cytopathic effect [CPE] (5days) Average: 0
  Cytopathic effect [CPE] (3days) △CPE: 2.0
  Cytopathic effect [CPE] (5days) △CPE: 3.0
[4]
  maximum nontoxic doses (MNTD): > 200 µg/mL
[4]; 72 h
  Cellular toxity (3 days) Maximum nontoxic does: >200 µg/mL
[4]; 120 h
  Cellular toxity (5 days) Maximum nontoxic does: >200 µg/mL
[5]; 100 μg/ml
  Ratio (%): absolutely no effect
[5]; 200 μg/ml
  Ratio (%): absolutely no effect
